The test has as its system CEM cells HIV-1 protection, formazan growth assay. In words: NCI AIDS Antiviral Assay. Particulars: for IC50: measured here: growth of uninfected CEM cells. In a few lines:
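Soluble formazan readout of cell growth; CEM cells ± HIV-1; 5 drug concs. ≥50% protection → retest; ≥50% again = moderately active; reproducible 100% = confirmed active.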

Molecules are shown by their SMILES. The source made the active and inactive calls.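 How the source made its calls: active means compounds giving half or more protection of infected cells from virus-caused growth loss, again on retest; inactive means the rest.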

Regarding `C[n+]1c(-c2ccc(NC(=O)c3ccc(C(=O)Nc4ccc(-c5cn6ccccc6[n+]5C)cc4)cc3)cc2)cn2ccccc21`, the EC50 is above 2.63 µM and the IC50 stood at 1.66 µM. Taken in the same sequence, the figures for `Cn1c(=O)c2c(ncn2CCCCn2ccnc2[N+](=O)[O-])n(C)c1=O` were above 200 µM and above 200 µM. As for `Cc1ccc(C2=Nc3c(c(C)nn3-c3ccccc3)N=C(C(=O)O)C2)cc1`, the EC50 is above 200 µM and the IC50 amounted to 75.9 µM.

For `Cc1ccc(F)cc1NC(=O)O/N=C(\Cl)C(C)C`, the EC50 is above 20 µM and the IC50 amounted to 3.8 µM. With `COc1ccccc1C1C2=C(COC2=O)Oc2cc3c(cc21)OCO3` (configuration not stated), the EC50 was above 200 µM and the IC50 came out at 2.19 µM. On to `CCOC(=O)c1sc2c(C(=O)OCC)c3cc(C)ccn3c2c1N`, for which the outcome was inactive. Turning to `Cc1ccc(S(=O)(=O)c2c(N)c3nc4ccccc4n3c3nc4ccccc4nc23)cc1`, the EC50 is above 4.57 µM and the IC50 was above 4.57 µM. For `O=C(O)c1cc(O)c2c(=O)c3c(O)cc(O)c4c5c(O)cc(O)c6c(=O)c7c(O)cc(C(=O)O)c8c1c2c(c34)c(c65)c78`, the outcome was inactive. In the case of `O=CNc1cccc2c(=O)[nH][nH]c(=O)c12`, the EC50 was above 126 µM and the IC50 was above 126 µM.

Take `O=[N+]([O-])c1cc([N+](=O)[O-])c(/C=C/c2ccc(Cl)c(Cl)c2)cc1/C=C/c1ccc(Cl)c(Cl)c1`: the EC50 was above 19.5 µM and the IC50 was above 19.5 µM. In the case of `CC1=NC(C)(C)CC2CCC(O)C12` (configuration not stated), the EC50 is above 200 µM and the IC50 is above 200 µM.

The molecule `O=C(O)c1ccc(C(=O)c2ccccc2)c(C(=O)O)c1` displayed an EC50 above 200 µM and an IC50 above 200 µM. Regarding `O=C(CSc1ncn[nH]1)C[P+](c1ccccc1)(c1ccccc1)c1ccccc1`, the outcome was inactive.

Consider `c1cncc(C2N3CCCCC3[C@@H]3c4[nH]c5ccccc5c4CCN23)c1` (some centres not stated), for which the EC50 is above 97.7 µM and the IC50 was above 97.7 µM. `CCOC(=O)C(=O)Nc1ccccc1OCC`: the EC50 is above 209 µM and the IC50 is above 209 µM. As to `C[N+](C)(C)CC(=O)N/N=C(\Cc1nc2ccc([N+](=O)[O-])cc2[nH]c1=O)C(=O)Nc1nc2ccc([N+](=O)[O-])cc2s1`, the EC50 is above 42.7 µM and the IC50 is above 42.7 µM.

With `C=CC(C)(CC/C=C(\C)CCC=C(C)C)c1cc(O)c(O)c(-c2cc(C(C)(C=C)CC/C=C(\C)CCC=C(C)C)cc(O)c2O)c1` (configuration not stated), the EC50 was above 5.75 µM and the IC50 was above 5.75 µM.

In the case of `C/C=C1\CNC1C(=O)O` (configuration not stated), the EC50 was above 200 µM and the 50% inhibitory concentration (IC50) was above 200 µM. With `COC(=O)C1=C(C(=O)OC)C2(C)OC1C(=O)C21CC1` (configuration not stated), the outcome was inactive. In the case of `OC1(c2ccccc2)CC2CCC(C1)N2CCCC(O)(c1ccccc1)c1ccccc1` (configuration not stated), the EC50 was above 200 µM and the IC50 was 28.8 µM. Taken in the same sequence, the figures for `O=C(NNC(=S)Nc1ccccc1)C12CC3CC(CC(C3)C1)C2` were above 200 µM and 34.7 µM. For `Nc1cccc(Nc2nc3ccccc3nc2NS(=O)(=O)c2ccccc2)c1`, in that order: above 200 µM and 51.3 µM. In the case of `CCOC(=O)C1=C(OC(OCC)C([Se]c2ccccc2)C(C)C)CCC1` (configuration not stated), the EC50 was above 23.4 µM and the IC50 was above 23.4 µM. In the case of `COc1ccc2c(O)c(C)c(=O)n(C)c2c1`, the EC50 was above 200 µM and the concentration for half-maximal inhibition (IC50) is above 200 µM.

`Clc1ccc(N=Nc2nc3ccccc3nc2N=Nc2ccc(Cl)cc2Cl)c(Cl)c1`: the EC50 was above 0.794 µM and the IC50 is above 0.794 µM. Consider `O=C1C[C@@H]2[C@@H](CCC23CC3)N1`, for which the EC50 was above 1660 µM and the IC50 was above 1660 µM. In the case of `CC(=O)Nc1ccc2[nH]c(C(=O)N3CC(CCl)c4c3cc([N+](=O)[O-])c3ccccc43)cc2c1` (configuration not stated), the EC50 was above 2 µM and the IC50 worked out at 1.7 µM. For `Cc1[nH]c(=O)[nH]c(=O)c1CN1CCCCC1`, in that order: above 6.46 µM and above 6.46 µM. For `COC(=O)c1cc(Cc2cc(C)c(OC)c(C(=O)OC)c2)cc(C)c1OC`, in that order: above 200 µM and 14.5 µM. Taken in the same sequence, the figures for `Cc1noc2c1C(=O)CCC2` were above 1660 µM and 148 µM.

For `CC(=O)c1c2c(cc3c1CC1(Cc4cc5c(cc4C1)CCC5)C3)CCC2`, the EC50 is above 200 µM and the IC50 is above 200 µM.

As to `CCCCC1=NNC(=O)C1`, the EC50 was above 200 µM and the IC50 is above 200 µM. As to `COC(=O)C1(Cc2ccc3c(c2)CCC3)Cc2ccc3c(c2C1)CCC3` (configuration not stated), the EC50 is above 200 µM and the IC50 was 37.2 µM. For the molecule `CC(=O)N=C(N=Nc1c(O)[nH]c2ccc(C)cc12)NC(C)=O`, the EC50 is above 200 µM and the IC50 is 148 µM. As for `Cc1cn(CCCCCOC(=O)NC(CCCNC(N)=O)C(=O)O)c(=O)[nH]c1=O` (configuration not stated), the EC50 was above 200 µM and the IC50 was above 200 µM. As to `CC1=NN(c2ccccc2)C(=O)/C1=C1\SS/C(=C2\C(=O)N(c3ccccc3)N=C2C)S1`, the EC50 is above 100 µM and the IC50 was above 100 µM.

As for `CC1CSC(=S)N1C(=O)N1C(=S)SCC1C` (configuration not stated), the result was inactive. `CN1CCN(C(=S)N(C(=O)c2ccc(Cl)cc2)c2ccccc2)CC1`: the EC50 was above 13.8 µM and the IC50 is above 13.8 µM. As to `CCCOC(=O)C(F)C(Br)C(=O)OCCC` (configuration not stated), the EC50 is above 200 µM and the IC50 was 3.16 µM.

For `COC(=O)c1c(CC(Cc2ccc3c(c2)CCCC3)C(=O)OC)ccc2c1CCCC2` (configuration not stated), the EC50 was above 200 µM and the IC50 is 95.5 µM. Taken in the same sequence, the figures for `c1ccc(C(NC2CCCCC2NCCNC2CCCCC2NC(c2ccccc2)(c2ccccc2)c2ccccc2)(c2ccccc2)c2ccccc2)cc1` (configuration not stated) were above 200 µM and 6.17 µM. Taken in the same sequence, the figures for `CC(OC(C)(C)C)C(NC(=O)C(Cc1ccccc1)NC(=O)C(NC(=O)C(CCCCNC(=O)OC(C)(C)C)NC(=O)C(Cc1c[nH]c2ccccc12)C(=O)NC(Cc1ccccc1)NC(=O)C(Cc1ccccc1)NC(=O)C(CC(N)=O)NC(=O)C(N)CCCCNC(=O)OC(C)(C)C)C(C)OC(C)(C)C)C(=O)NC(COC(C)(C)C)C(=O)NC(CSC(C)(C)C)C(=O)OC(C)(C)C` (configuration not stated) were 87.1 µM and above 200 µM.

For `CCOC(=O)C1(C(=O)OCC)CC=C(C)CC12C(=O)Nc1ccccc12` (configuration not stated), the EC50 is above 72.4 µM and the IC50 was above 72.4 µM.

As for `O=C(N=Nc1cc(Cl)ccc1Cl)NNc1cc(Cl)ccc1Cl`, the EC50 is above 200 µM and the IC50 came to 11.2 µM. For `O=c1c(-c2cccc(O)c2)coc2cc(O)c(O)cc12`, in that order: above 200 µM and 10.5 µM. As for `O=C1CCCCC1=O`, the result was inactive. In the case of `Nc1nc(Cl)nc(Cl)n1`, the EC50 is above 200 µM and the IC50 is above 200 µM.

On to `COC1/C=C/OC2(C)Oc3c(C)c(O)c4c(O)c(c(/C=N/N(C)c5nc6c(N)ncnc6n5C5OC(CO)C(O)C5O)c(O)c4c3C2=O)NC(=O)C(C)=C/C=C/C(C)C(O)C(C)C(O)C(C)C(OC(C)=O)C1C` (configuration not stated), for which the EC50 was above 200 µM and the IC50 was found to be 112 µM. For `Clc1ccccc1CSc1ccc2nncc(SCc3ccccc3Cl)c2c1`, in that order: above 34.7 µM and above 34.7 µM.

In general, EC50 refers to the concentration at which the effect is half-maximal. In general, IC50 refers to the midpoint of a concentration-inhibition curve. Low values mean higher potency, high ones lower potency.
